Data from patent publication US20090298820A1, “3-SUBSTITUTED-1H-PYRROLO[2,3-B]PYRIDINE AND 3-SUBSTITUTED-1H-PYRROLO[3,2-B]PYRIDINE COMPOUNDS, THEIR USE AS MTOR KINASE AND PI3 KINASE INHIBITORS, AND THEIR SYNTHESES” (Wyeth, priority 2008, published 2009).

Tests used:
Type in all cases: biochemical
[1] = target: PI3Kγ (Homo sapiens, UniProt P48736); assay: PI3K-gamma fluorescence polarization assay; details: read-out: PI3Kγ Median IC50
[2] = target: PI3Kα (Homo sapiens, UniProt P42336); assay: PI3K-alpha fluorescence polarization assay; details: read-out: PI3Kα Median IC50
Chain of PI3Kα (P42336 whole entry, species assumed): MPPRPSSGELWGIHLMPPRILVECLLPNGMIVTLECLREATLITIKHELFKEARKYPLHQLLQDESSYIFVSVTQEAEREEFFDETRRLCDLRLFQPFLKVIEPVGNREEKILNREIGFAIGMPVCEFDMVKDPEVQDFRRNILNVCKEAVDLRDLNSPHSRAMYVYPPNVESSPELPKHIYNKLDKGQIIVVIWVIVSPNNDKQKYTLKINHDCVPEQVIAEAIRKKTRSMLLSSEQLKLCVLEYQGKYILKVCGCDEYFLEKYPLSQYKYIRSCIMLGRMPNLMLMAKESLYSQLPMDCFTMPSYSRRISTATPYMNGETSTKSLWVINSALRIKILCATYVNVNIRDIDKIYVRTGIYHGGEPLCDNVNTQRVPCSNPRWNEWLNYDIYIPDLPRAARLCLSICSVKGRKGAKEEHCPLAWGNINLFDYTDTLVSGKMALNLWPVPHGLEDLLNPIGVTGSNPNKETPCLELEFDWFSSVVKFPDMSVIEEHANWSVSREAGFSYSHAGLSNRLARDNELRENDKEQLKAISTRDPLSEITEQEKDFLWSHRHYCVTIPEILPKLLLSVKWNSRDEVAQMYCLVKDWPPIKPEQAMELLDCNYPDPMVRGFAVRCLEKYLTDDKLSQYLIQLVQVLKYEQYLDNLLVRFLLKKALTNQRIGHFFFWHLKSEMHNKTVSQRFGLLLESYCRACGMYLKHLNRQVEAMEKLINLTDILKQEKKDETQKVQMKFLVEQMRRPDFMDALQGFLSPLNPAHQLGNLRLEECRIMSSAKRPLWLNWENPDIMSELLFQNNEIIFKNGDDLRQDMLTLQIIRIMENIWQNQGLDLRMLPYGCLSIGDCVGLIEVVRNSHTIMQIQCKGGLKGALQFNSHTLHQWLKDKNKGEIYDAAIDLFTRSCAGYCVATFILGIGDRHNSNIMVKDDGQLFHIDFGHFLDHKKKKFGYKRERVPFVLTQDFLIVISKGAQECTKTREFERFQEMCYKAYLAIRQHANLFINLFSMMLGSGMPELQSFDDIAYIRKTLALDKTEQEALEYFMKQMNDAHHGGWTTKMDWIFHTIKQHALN
Chain of PI3Kα (P27986 whole entry partner, species assumed): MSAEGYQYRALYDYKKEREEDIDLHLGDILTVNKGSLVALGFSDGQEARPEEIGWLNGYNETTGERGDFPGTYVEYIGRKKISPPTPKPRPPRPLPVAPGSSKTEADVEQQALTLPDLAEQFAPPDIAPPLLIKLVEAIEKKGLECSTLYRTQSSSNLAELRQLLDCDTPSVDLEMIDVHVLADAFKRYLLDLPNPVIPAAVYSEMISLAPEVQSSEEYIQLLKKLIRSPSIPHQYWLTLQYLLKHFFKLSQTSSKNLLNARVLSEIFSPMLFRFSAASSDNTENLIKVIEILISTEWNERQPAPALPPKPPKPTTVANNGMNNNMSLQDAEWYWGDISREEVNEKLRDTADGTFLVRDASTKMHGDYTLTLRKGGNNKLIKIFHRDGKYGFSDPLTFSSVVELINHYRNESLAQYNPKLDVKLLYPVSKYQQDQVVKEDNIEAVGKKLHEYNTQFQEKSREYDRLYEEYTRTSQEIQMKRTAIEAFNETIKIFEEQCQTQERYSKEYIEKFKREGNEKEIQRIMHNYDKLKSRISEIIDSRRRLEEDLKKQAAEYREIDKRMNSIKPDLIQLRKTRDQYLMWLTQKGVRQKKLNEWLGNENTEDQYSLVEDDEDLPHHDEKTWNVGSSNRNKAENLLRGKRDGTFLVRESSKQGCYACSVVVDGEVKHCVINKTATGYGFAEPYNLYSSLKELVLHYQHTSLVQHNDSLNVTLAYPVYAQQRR

[3] = target: mTOR (Homo sapiens, UniProt P42345); assay: mTOR enzyme assay (DELFIA format, His6-S6K substrate); details: read-out: mTOR Kinase Median IC50

Chain of PI3Kγ (P48736 whole entry, species assumed): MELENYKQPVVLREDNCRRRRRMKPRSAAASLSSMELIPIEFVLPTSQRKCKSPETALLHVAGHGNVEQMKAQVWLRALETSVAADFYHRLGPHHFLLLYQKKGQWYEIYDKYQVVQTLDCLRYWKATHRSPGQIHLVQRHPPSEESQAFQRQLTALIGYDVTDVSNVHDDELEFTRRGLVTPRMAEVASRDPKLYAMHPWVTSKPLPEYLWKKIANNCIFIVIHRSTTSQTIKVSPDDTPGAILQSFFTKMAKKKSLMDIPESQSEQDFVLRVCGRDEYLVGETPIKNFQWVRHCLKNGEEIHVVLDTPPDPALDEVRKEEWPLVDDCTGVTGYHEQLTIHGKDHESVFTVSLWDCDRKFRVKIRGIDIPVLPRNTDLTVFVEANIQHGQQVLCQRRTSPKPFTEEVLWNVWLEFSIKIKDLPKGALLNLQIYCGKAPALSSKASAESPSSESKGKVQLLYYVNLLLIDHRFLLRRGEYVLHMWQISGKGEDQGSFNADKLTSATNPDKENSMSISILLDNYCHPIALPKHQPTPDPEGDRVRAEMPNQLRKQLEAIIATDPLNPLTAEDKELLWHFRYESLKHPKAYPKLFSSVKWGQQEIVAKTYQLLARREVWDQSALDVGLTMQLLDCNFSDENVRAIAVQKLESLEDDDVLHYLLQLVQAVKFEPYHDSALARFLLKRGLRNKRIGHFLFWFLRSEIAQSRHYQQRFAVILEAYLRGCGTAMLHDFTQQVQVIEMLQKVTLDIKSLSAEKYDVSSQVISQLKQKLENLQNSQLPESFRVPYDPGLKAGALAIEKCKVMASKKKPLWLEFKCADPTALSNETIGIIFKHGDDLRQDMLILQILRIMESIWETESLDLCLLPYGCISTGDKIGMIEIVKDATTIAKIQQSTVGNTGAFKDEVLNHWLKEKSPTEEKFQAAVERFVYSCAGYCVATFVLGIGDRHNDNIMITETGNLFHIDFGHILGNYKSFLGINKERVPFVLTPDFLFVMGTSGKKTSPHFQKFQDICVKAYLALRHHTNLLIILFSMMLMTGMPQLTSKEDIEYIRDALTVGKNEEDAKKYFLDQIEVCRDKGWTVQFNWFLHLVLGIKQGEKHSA

SMILES | IC50 [1] [µM] | IC50 [2] [µM] | IC50 [3] [µM]
Cn1cc(/C=C2\Oc3cccc(O)c3C2=O)c2c(N3CC4CCC(C3)O4)ccnc21 [Compound 55, (2Z)-4-hydroxy-2-{[1-methyl-4-(8-oxa-3-azabicyclo[3.2.1]oct-3-yl)-1H-pyrrolo[2,3-b]pyridin-3-yl]methylene}-1-benzofuran-3(2H)-one] | 0.051 | 0.104 | 0.0004
CN1CCN(c2ccc(-c3ccnc4c3c(/C=C3\Oc5cc(O)cc(O)c5C3=O)cn4C)cc2)CC1 [Compound 56, (2Z)-4,6-dihydroxy-2-({1-methyl-4-[4-(4-methylpiperazin-1-yl)phenyl]-1H-pyrrolo[2,3-b]pyridin-3-yl}methylene)-1-benzofuran-3(2H)-one] | 0.581 | 0.079 | 0.0019
CN1CCN(c2ccc(-c3ccnc4c3c(/C=C3\Oc5cccc(O)c5C3=O)cn4C)cc2)CC1 [Compound 57, (2Z)-4-hydroxy-2-({1-methyl-4-[4-(4-methylpiperazin-1-yl)phenyl]-1H-pyrrolo[2,3-b]pyridin-3-yl}methylene)-1-benzofuran-3(2H)-one] | 0.148 | 0.147 | 0.0114
Cn1cc(/C=C2\Oc3ccc(Br)cc3C2=O)c2c(N3CC4CCC(C3)O4)ccnc21 [Compound 59, (2Z)-5-bromo-2-{[1-methyl-4-(8-oxa-3-azabicyclo[3.2.1]oct-3-yl)-1H-pyrrolo[2,3-b]pyridin-3-yl]methylene}-1-benzofuran-3(2H)-one] | 0.98 | 0.391 | 0.0355
CCNC(=O)Nc1ccc2c(c1)C(=O)/C(=C/c1cn(C)c3nccc(N4CC5CCC(C4)O5)c13)O2 [Compound 61, 1-ethyl-3-[(2Z)-2-{[1-methyl-4-(8-oxa-3-azabicyclo[3.2.1]oct-3-yl)-1H-pyrrolo[2,3-b]pyridin-3-yl]methylene}-3-oxo-2,3-dihydro-1-benzofuran-5-yl]Urea] | 0.668 | 0.311 | 0.057
Cn1cc(/C=C2\Oc3cccc(O)c3C2=O)c2c(-c3ccc(N4CCOCC4)nc3)ccnc21 [Compound 69, (2Z)-4-hydroxy-2-{[1-methyl-4-(6-morpholin-4-ylpyridin-3-yl)-1H-pyrrolo[2,3-b]pyridin-3-yl]methylene}-1-benzofuran-3(2H)-one] | 0.281 | 0.064 | 0.0248
Cn1cc(/C=C2\Oc3cccc(O)c3C2=O)c2c(-c3ccc(N4CCCCC4)nc3)ccnc21 [Compound 70, (2Z)-4-hydroxy-2-{[1-methyl-4-(6-piperidin-1-ylpyridin-3-yl)-1H-pyrrolo[2,3-b]pyridin-3-yl]methylene}-1-benzofuran-3(2H)-one] | 0.242 | 0.271 | 0.115
Cn1cc(/C=C2\Oc3cccc(O)c3C2=O)c2c(-c3ccc(S(C)(=O)=O)cc3)ccnc21 [Compound 73, (2Z)-4-hydroxy-2-({1-methyl-4-[4-(methylsulfonyl)phenyl]-1H-pyrrolo[2,3-b]pyridin-3-yl}methylene)-1-benzofuran-3(2H)-one] | 0.075 | 0.023 | 0.0031
CNS(=O)(=O)c1ccc(-c2ccnc3c2c(/C=C2\Oc4cc(O)cc(O)c4C2=O)cn3C)cc1 [Compound 77, 4-{3-[(Z)-(4,6-dihydroxy-3-oxo-1-benzofuran-2(3H)-ylidene)methyl]-1-methyl-1H-pyrrolo[2,3-b]pyridin-4-yl}-N-methylbenzenesulfonamide] | 0.022 | 0.002 | 0.0002
Cn1cc(/C=C2\Oc3cc(O)cc(O)c3C2=O)c2c(C3=CCNCC3)ccnc21 [Compound 78, (2Z)-4,6-dihydroxy-2-{[1-methyl-4-(1,2,3,6-tetrahydropyridin-4-yl)-1H-pyrrolo[2,3-b]pyridin-3-yl]methylene}-1-benzofuran-3(2H)-one] | 0.315 | 0.031 | 0.005

Now from value to compound:

IC50 [1] [µM] | IC50 [2] [µM] | IC50 [3] [µM] | SMILES
0.049 | 0.008 | 0.0014 | Cn1cc(/C=C2\Oc3cc(O)cc(O)c3C2=O)c2c(-c3cccc(C(=O)N4CCCC4)c3)ccnc21 [Compound 79, (2Z)-4,6-dihydroxy-2-({1-methyl-4-[3-(pyrrolidin-1-ylcarbonyl)phenyl]-1H-pyrrolo[2,3-b]pyridin-3-yl}methylene)-1-benzofuran-3(2H)-one]
0.069 | 0.023 | 0.0018 | Cn1cc(/C=C2\Oc3cc(O)cc(O)c3C2=O)c2c(-c3cccc(S(=O)(=O)N4CCCCC4)c3)ccnc21 [Compound 80, (2Z)-4,6-dihydroxy-2-({1-methyl-4-[3-(piperidin-1-ylsulfonyl)phenyl]-1H-pyrrolo[2,3-b]pyridin-3-yl}methylene)-1-benzofuran-3(2H)-one]
0.079 | 0.028 | 0.0016 | COc1ccc(-c2ccnc3c2c(/C=C2\Oc4cccc(O)c4C2=O)cn3C)cc1S(=O)(=O)N1CCOCC1 [Compound 81, (2Z)-4-hydroxy-2-({4-[4-methoxy-3-(morpholin-4-ylsulfonyl)phenyl]-1-methyl-1H-pyrrolo[2,3-b]pyridin-3-yl}methylene)-1-benzofuran-3(2H)-one]
0.07 | 0.02 | 0.0014 | Cn1cc(/C=C2\Oc3cccc(O)c3C2=O)c2c(-c3ccc(S(=O)(=O)NC4CC4)cc3)ccnc21 [Compound 82, N-cyclopropyl-4-{3-[(Z)-(4-hydroxy-3-oxo-1-benzofuran-2(3H)-ylidene)methyl]-1-methyl-1H-pyrrolo[2,3-b]pyridin-4-yl}benzenesulfonamide]
0.951 | 0.124 | 0.0095 | Cn1cc(/C=C2\Oc3cccc(O)c3C2=O)c2c(-c3ccc(C(=O)Nc4ccc(F)cc4)cc3)ccnc21 [Compound 83, N-(4-fluorophenyl)-4-{3-[(Z)-(4-hydroxy-3-oxo-1-benzofuran-2(3H)-ylidene)methyl]-1-methyl-1H-pyrrolo[2,3-b]pyridin-4-yl}benzamide]
> 10 | 4.88 | 0.165 | Cn1cc(/C=C2\Oc3cccc(O)c3C2=O)c2c(-c3ccc(Oc4ccccc4)cc3)ccnc21 [Compound 84, (2Z)-4-hydroxy-2-{[1-methyl-4-(4-phenoxyphenyl)-1H-pyrrolo[2,3-b]pyridin-3-yl]methylene}-1-benzofuran-3(2H)-one]
0.157 | 0.273 | 0.0265 | Cn1cc(/C=C2\Oc3cccc(O)c3C2=O)c2c(-c3cc4ccccc4o3)ccnc21 [Compound 85, (2Z)-2-{[4-(1-benzofuran-2-yl)-1-methyl-1H-pyrrolo[2,3-b]pyridin-3-yl]methylene}-4-hydroxy-1-benzofuran-3(2H)-one]
0.6 | 0.077 | 0.0034 | COc1ccc(-c2ccnc3c2c(/C=C2\Oc4cccc(O)c4C2=O)cn3C)cc1S(=O)(=O)N1CCCC1 [Compound 86, (2Z)-4-hydroxy-2-({4-[4-methoxy-3-(pyrrolidin-1-ylsulfonyl)phenyl]-1-methyl-1H-pyrrolo[2,3-b]pyridin-3-yl}methylene)-1-benzofuran-3(2H)-one]
0.066 | 0.161 | 0.0036 | Cn1cc(/C=C2\Oc3cc(O)cc(O)c3C2=O)c2c(-c3ccc(Oc4ccccc4)cc3)ccnc21 [Compound 87, (2Z)-4,6-dihydroxy-2-{[1-methyl-4-(4-phenoxyphenyl)-1H-pyrrolo[2,3-b]pyridin-3-yl]methylene}-1-benzofuran-3(2H)-one]
